Laboratory results as given in patent US9155784B2, “Anti-TNF-α therapy for the mucopolysaccharidoses and other lysosomal disorders” (Icahn School of Medicine at Mount Sinai, priority 2011, dated 2015).

Tests used:
[1] = test system: Niemann-Pick disease mice (acid sphingomyelinase knock-out); assay: Rotarod analysis of Niemann-Pick disease mice treated with PPS; type: in vivo, mouse; settings: 25 mg/kg/day for three months from one month of age; 20 RPM; p<0.01; remained below wild-type
Procedure: One-month-old Niemann-Pick disease mice (acid sphingomyelinase knock-out) were treated with PPS for three months beginning at one month of age (25 mg/kg/day). They were then analyzed using an accelerating rotarod apparatus set to 20 RPM.

MPS VI rats [2] = assay: Accelerating rotarod of PPS treated MPS VI rats; type: in vivo, rat
Procedure: FIG. 9 depicts rotarod analysis of MPS VI rats with and without PPS. Six-month-old MPS VI rats were maintained with or without PPS for 3 months (n=6/group), and prior to sacrifice were analyzed using an accelerating rotarod apparatus. Gray=MPS VI rats on normal water; Blue=MPS VI rats receiving PPS.
FIGS. 12A-12C show results of treatment of MPS VI rats at one month of age. In FIGS. 12A and 12B, one-month old MPS VI rats were maintained for eight months on normal water or with water containing 25 mg/day PPS (n=6/group). Representative images are shown. Arrows indicate ocular porphyrin secretions, wide broad skull and snout and small ears in the untreated, with marked improvement in the treated animal. In FIG. 12C, animals were tested on an accelerating rotarod apparatus. […] In addition, only normal and treated rats were able to remain on the rotating rod at speeds up to 35 RPM (60% of normal).
(§1) Immediately prior to sacrifice, the animals also were studied using an accelerating rotarod apparatus. […] It was hypothesized that this reflects either increased joint mobility and/or reduced inflammation and pain in the treatment group. […] Serum levels of inflammatory marker MIP-1α is shown in FIG. 11A, while levels of marker Rantes is show in FIG. 11B and levels of TNF-α are shown in FIG. 11C.

MPS VI rats [3] = assay: Skull and snout appearance, radiographs and microCT in PPS treated MPS VI rats; type: in vivo, rat
Procedure: FIGS. 6A-6D show results of MPS VI rats treated with PPS. MPS VI rats were maintained on normal watering (FIG. 6A) or with water containing 25 mg/day PPS (n=6/group) (FIG. 6B). Animals were 6 months of age when treatment began, and treatment was carried out for 3 months. Skull and snout images were taken at the end of treatment. Representative images are shown. Skull length and width measurements also were determined from the radiographs for each of the animals, and the data are shown in the bar graph (FIGS. 6C, 6D). White=normal 9 month old, Gray=MPS VI rats on normal water; Blue=MPS VI rats receiving PPS. *=p<0.01.
FIGS. 7A-7F show skull radiographs (FIGS. 7A, 7B, 7C) and microCT images (FIGS. 7D, 7E, 7F) of normal rats (FIGS. 7A, 7D), MPS VI rats with PPS treatment (FIGS. 7C, 7F), and MPS VI rats without PPS treatment (FIGS. 7B, 7E). MPS VI rats were maintained on normal watering or with water containing 25 mg/day PPS (n=6/group). Animals were 6 months of age when treatment was begun, and treatment was carried out for 3 months. The top images show radiographs (FIGS. 7A, 7B, 7C), and the bottom images microCT images (FIGS. 7D, 7E, 7F). Longer snouts and thinner skulls were found in the MPS VI rats treated with PPS compared to untreated MPS VI. The lines in the radiographs are for reference. The quantitative data shown in FIGS. 6A-6D on skull length and width were measured from these radiographs.
In order to develop “proof-of-principle” data, six MPS VI rats at 6 months of age were treated with PPS for 3 months. 6-month-old MPS VI rats have established bone, cartilage, and inflammatory disease, and the specific goal in this initial study was therefore to evaluate whether PPS could either slow or reverse any of the clinical or pathological findings in MPS animals with advanced disease. […] As illustrated by FIGS. 7A-7F skull radiographs and microCT images were taken of normal rats (FIGS. 7A, 7D), MPS VI rats with PPS treatment (FIGS. 7C, 7F), and MPS VI rats without PPS treatment (FIGS. 7B, 7E). […] The images shown are representative of the general observations on these animals.

articular chondrocytes = assay: Western blotting of articular chondrocytes from PPS treated MPS VI rats; type: in vivo, rat; settings: western blot, PPS groups 1-3, sacrificed at 9 months
Procedure: Groups 1, 2 and 3 animals were treated with PPS beginning at 6 months, 1 month and prenatally. They were sacrificed at 9 months and articular chondrocytes were isolated and grown for 3 weeks. They were then analyzed by western blotting. […] ADAMTS-5 is a proteeoglycan-degrading aggrecanase that also is elevated in untreated MPS VI rat chondrocytes, and was reduced in the MPS VI treatment groups.

MPS VI rats [4] = assay: Spine disease: disc height index from sagittal radiographs, PPS treated MPS VI rats; type: in vivo, rat; settings: PPS treatment of skeletally mature animals (6 months of age)
Procedure: FIGS. 14A-14C show an assessment of spine disease in the treated (6 month old) and untreated MPS VI rats.
Lastly, spine disease in the treated (6 month old) and untreated MPS VI rats was assessed. These studies have documented several important and clinically relevant endpoints that can be followed during PPS treatment. Histologically, MPS VI discs had abundant, enlarged vacuolated nuclear and annular cells as well as thickened annulus layers, focal defects in the nucleus pulposus, and increased disc height as compared to control discs (FIG. 14A). […] ADAMTS-5 is a proteoglycan-degrading aggrecanase that also is elevated in untreated MPS VI rat chondrocytes, but was reduced in the MPS VI treatment groups (FIG. 15).

MIP-1α, Rantes, TNF-α = assay: Serum inflammatory markers by ELISA in PPS treated MPS VI rats; type: in vivo, rat
Procedure: (§2) FIGS. 10A-10B illustrate immunohistochemical analysis of PPS treated and untreated rats.
FIGS. 11A-11C show serum inflammatory markers in treated and untreated MPS VI rats. Three groups of MPS VI rats were treated with PPS beginning at six months (light gray), one month (dark gray) or prenatally (black). All animals were sacrificed at 9 months of age. The duration of treatment was therefore 3 months, 8 months or 9.75 months, respectively. The serum levels of several inflammatory markers were measured by ELISA assays, and compared to normal (hatched) or untreated MPS VI animals (white). N=6/group. Serum levels of inflammatory marker MIP-1α is shown in FIG. 11A, while levels of marker Rantes is shown in FIG. 11B and levels of TNF-α are shown in FIG. 11C.
as §1

MPS VI rats [5] = assay: MicroCT of dentition in PPS treated MPS VI rats; type: in vivo, rat; settings: PPS 25 mg/day, start at 6 months of age, 3 months
Procedure: FIGS. 8A-8F show microCT images of normal rats (FIGS. 8A, 8B) MPS VI rats with PPS treatment (FIGS. 8E, 8F) and without PPS treatment (FIGS. 8C, 8D) showing dentition changes. MPS VI rats were maintained on normal watering or with water containing 25 mg/day PPS (n=6/group). Animals were 6 months of age when treatment was begun, and treatment was carried out for 3 months. Untreated MPS VI rats have overgrown incisors (box) that leads to abnormal alignment of the teeth compared to normal rats. The mandible and misalignment were corrected by PPS treatment.
Untreated MPS VI rats have overgrown incisors (box) (FIGS. 8C, 8D) that leads to abnormal alignment of the teeth compared to normal rats. The mandible and misalignment were corrected by PPS treatment (FIGS. 8E, 8F).

MPS VI rats [6] = assay: Tracheas of MPS VI rats treated with PPS; type: in vivo, rat; settings: all PPS treatment groups (start 6 months, 1 month, prenatally), sacrificed at 9 months
Procedure: FIG. 13 illustrates tracheas of MPS VI rats treated with PPS. Groups 1, 2 and 3 animals were treated with PPS beginning at 6 months, 1 month, and prenatally. They were sacrificed at 9 months and the tracheas were isolated.

TNF-α = assay: Immunohistochemical analysis of TNF-α in liver and spleen of PPS treated MPS VI rats; type: in vivo, rat; settings: PPS start at 6 months, 9-month-old animals, vs untreated
Description: as §2, §1

[7] = PPS 25 mg/day in water, start at 6 months of age, 3 months, vs untreated MPS VI
[8] = all treatment groups (start 6 months, 1 month or prenatally), sacrificed at 9 months, vs untreated

Substance: Pentosan polysulfate [PPS]
- rotarod performance versus untreated NPD mice [1]: significantly better
- time on the rotating rod versus untreated (MPS VI rats [2]; PPS start at 1 month of age, 8 months, 20 RPM): more than twice as long
- rotarod performance at speeds up to 35 RPM (MPS VI rats [2]; PPS start at 1 month of age, 8 months, untreated unable to remain): 60 % of normal
- time on the rotating rod versus untreated (MPS VI rats [2]; PPS start at 6 months of age, 3 months, p<0.02): more than twice as long
- skull length (MPS VI rats [3]; [7]): significantly longer
- skull width (MPS VI rats [3]; [7]): thinner
- snout length (MPS VI rats [3]; [7]): significantly longer
- facial appearance, skull length, eye and nasal secretions, and motility (MPS VI rats [3]; PPS start at 1 month of age, 8 months): significant effect
- ocular porphyrin secretions (MPS VI rats [3]; PPS start at 6 months of age, 3 months, vs untreated MPS VI): markedly fewer
- ADAMTS-5 in articular chondrocytes (articular chondrocytes): reduced
- Cox-2 in articular chondrocytes (articular chondrocytes): reduced to normal
- TNF-α in articular chondrocytes (articular chondrocytes): reduced to normal
- p38 in articular chondrocytes (articular chondrocytes): reduced to normal
- disc height index (DHI) (MPS VI rats [4]): did not influence
- serum TNF levels (MIP-1α, Rantes, TNF-α; PPS start at 6 months, 9-month-old animals, vs untreated (FIG. 10B)): decreased
- serum MIP-1α level (MIP-1α, Rantes, TNF-α; [8]): significantly (<0.001) lower
- serum Rantes level (MIP-1α, Rantes, TNF-α; [8]): significantly (<0.001) lower
- serum TNF-α level (MIP-1α, Rantes, TNF-α; [8]): significantly (<0.001) lower
- mandible and misalignment of the teeth (MPS VI rats [5]): corrected
- collapsed tracheas (MPS VI rats [6]): improved
- TNF-α expression in liver and spleen (TNF-α): decreased
